Values joined by “and” are separate entries in the source; they are usually repeats but may differ in a detail not shown here. Identical values can stand only once. Inconclusive results and toxic doses are left out. How the source made its calls: active means survival T/C of 150% or more; inactive means T/C below 125% in these data.
Test system: P388 leukemia ip, CD2F1 mice, survival T/C
Assay: NCI In Vivo Anticancer Drug Screen. Data for tumor model P388 Leukemia (intraperitoneal) in CD2F1 (CDF1) mice
Conditions: endpoint: median survival time, higher = longer survival
Summary of the method: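 Mice carrying the transplanted tumor received test compound or vehicle. Survival was recorded in each group, and the value is the treated-group measurement divided by that of the vehicle-treated control group.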

[1] = dose: 50.0 mg/kg/injection, schedule: Q01DX005 (ip), vehicle: Klucel (hydroxypropylcellulose) (HPC)
[2] = dose: 100.0 mg/kg/injection, schedule: Q01DX005 (ip), vehicle: Klucel (hydroxypropylcellulose) (HPC)
[3] = dose: 100.0 mg/kg/injection, schedule: Q01DX009 (ip), vehicle: saline with Tween-80
[4] = dose: 50.0 mg/kg/injection, schedule: Q01DX005 (ip), vehicle: saline with Tween-80
[5] = dose: 100.0 mg/kg/injection, schedule: Q01DX005 (ip), vehicle: saline with Tween-80
[6] = dose: 200.0 mg/kg/injection, schedule: Q01DX005 (ip), vehicle: saline with Tween-80
[7] = dose: 200.0 mg/kg/injection, schedule: Q01DX005 (ip), vehicle: Klucel (hydroxypropylcellulose) (HPC)
[8] = dose: 50.0 mg/kg/injection, schedule: Q01DX009 (ip), vehicle: saline with Tween-80
[9] = dose: 60.0 mg/kg/injection, schedule: Q01DX005 (ip), vehicle: saline with Tween-80
[10] = dose: 120.0 mg/kg/injection, schedule: Q01DX005 (ip), vehicle: saline with Tween-80
[11] = dose: 240.0 mg/kg/injection, schedule: Q01DX005 (ip), vehicle: saline with Tween-80
[12] = dose: 15.0 mg/kg/injection, schedule: Q01DX005 (ip), vehicle: saline with Tween-80
[13] = dose: 200.0 mg/kg/injection, schedule: Q01DX009 (ip), vehicle: saline with Tween-80
[14] = dose: 6.25 mg/kg/injection, schedule: Q01DX009 (ip), vehicle: saline with Tween-80
[15] = dose: 12.5 mg/kg/injection, schedule: Q01DX009 (ip), vehicle: saline with Tween-80
[16] = dose: 25.0 mg/kg/injection, schedule: Q01DX009 (ip), vehicle: saline with Tween-80

Measured: T/C

Cc1ncc(C(O)CCC2OCCO2)n1Cc1ccccc1 (stereo unspecified)
inactive: dose: 50.0 mg/kg/injection, schedule: Q01DX009 (ip), vehicle: Klucel (hydroxypropylcellulose) (HPC) 96 % of control | dose: 100.0 mg/kg/injection, schedule: Q01DX009 (ip), vehicle: Klucel (hydroxypropylcellulose) (HPC) 98 % of control | dose: 200.0 mg/kg/injection, schedule: Q01DX009 (ip), vehicle: Klucel (hydroxypropylcellulose) (HPC) 98 % of control

CC1(c2ccccc2)CCCCC/C1=N/Nc1ccc([N+](=O)[O-])cc1[N+](=O)[O-] (stereo unspecified)
inactive: dose: 25.0 mg/kg/injection, schedule: Q01DX005 (ip), vehicle: Klucel (hydroxypropylcellulose) (HPC) 97 % of control | [1] 90 % of control | [2] 94 % of control

S=c1[nH]c2cc(Cl)ccc2s1
inactive: [3] 109 % of control | dose: 100.0 mg/kg/injection, schedule: Q04DX003 (ip), vehicle: saline with Tween-80 100 % of control | dose: 200.0 mg/kg/injection, schedule: Q04DX003 (ip), vehicle: saline with Tween-80 104 % of control | dose: 400.0 mg/kg/injection, schedule: Q04DX003 (ip), vehicle: saline with Tween-80 109 % of control

CC1=NN(C(=O)c2ccc(Cl)cc2)C(=O)C1N=Nc1ccc(S(=O)(=O)Nc2ncccn2)cc1 (stereo unspecified)
inactive: [4] 94 % of control | [5] 97 % of control | [6] 87 % of control

O=c1oc(-c2ccccc2)nc2c1CCS2
inactive: [1] 93 % of control | [2] 97 % of control | [7] 90 % of control

CCOC(=O)C(N)C[S][Sn]([CH3])([CH3])[Cl] (stereo unspecified)
inactive: [8] 91 % of control

O=C(Nc1ccc(CCc2ccc(NC(=O)C34CC5CC(CC(C5)C3)C4)cc2)cc1)C12CC3CC(CC(C3)C1)C2
inactive: [4] 96 % of control | [5] 90 % of control

CCOC(=O)/C=C1/CC(C#N)(C(=O)NN)CO1 (stereo unspecified)
inactive: dose: 100.0 mg/kg/injection, schedule: Q01DX001 (ip), vehicle: Klucel (hydroxypropylcellulose) (HPC) 102 % of control | dose: 200.0 mg/kg/injection, schedule: Q01DX001 (ip), vehicle: Klucel (hydroxypropylcellulose) (HPC) 110 % of control | dose: 400.0 mg/kg/injection, schedule: Q01DX001 (ip), vehicle: Klucel (hydroxypropylcellulose) (HPC) 100 % of control

COc1cccc(OC)c1OC(=O)Nc1ccccc1F
inactive: [9] 102 % of control | [10] 105 % of control | [11] 102 % of control

C=C1C(=O)OC(CCCCCCCCCCCCC)C1C(=O)O (stereo unspecified)
inactive: dose: 0.25 mg/kg/injection, schedule: Q01DX009 (ip), vehicle: saline with Tween-80 99 % of control | dose: 0.5 mg/kg/injection, schedule: Q01DX009 (ip), vehicle: saline with Tween-80 101 % of control | dose: 1.0 mg/kg/injection, schedule: Q01DX009 (ip), vehicle: saline with Tween-80 100 % of control

Cc1cccnc1OCC(=O)O
inactive: dose: 60.0 mg/kg/injection, schedule: Q01DX005 (ip), vehicle: Klucel (hydroxypropylcellulose) (HPC) 100 % of control and 93 % of control | dose: 120.0 mg/kg/injection, schedule: Q01DX005 (ip), vehicle: Klucel (hydroxypropylcellulose) (HPC) 103 % of control and 90 % of control | dose: 240.0 mg/kg/injection, schedule: Q01DX005 (ip), vehicle: Klucel (hydroxypropylcellulose) (HPC) 100 % of control and 92 % of control

CC1(C)OC2C(COC(c3ccccc3)(c3ccccc3)c3ccccc3)OC(n3ccc(=O)[nH]c3=O)C2O1 (stereo unspecified)
inactive: [1] 97 % of control | [2] 89 % of control | [7] 88 % of control

O=NNc1cncc(Sc2ccccc2)n1
inactive: dose: 3.12 mg/kg/injection, schedule: Q01DX009 (ip), vehicle: water 97 % of control | dose: 6.25 mg/kg/injection, schedule: Q01DX009 (ip), vehicle: water 94 % of control | dose: 12.5 mg/kg/injection, schedule: Q01DX009 (ip), vehicle: water 101 % of control | dose: 25.0 mg/kg/injection, schedule: Q01DX008 (ip), vehicle: water 116 % of control | dose: 25.0 mg/kg/injection, schedule: Q01DX009 (ip), vehicle: water 107 % of control | dose: 50.0 mg/kg/injection, schedule: Q01DX008 (ip), vehicle: water 120 % of control | dose: 50.0 mg/kg/injection, schedule: Q01DX009 (ip), vehicle: water 92 % of control

Cc1ccc2nc(NC(=S)SSC(=S)Nc3nc4ccc(C)cc4s3)sc2c1
inactive: dose: 6.25 mg/kg/injection, schedule: Q01DX009 (ip), vehicle: Klucel (hydroxypropylcellulose) (HPC) 107 % of control | dose: 12.5 mg/kg/injection, schedule: Q01DX009 (ip), vehicle: Klucel (hydroxypropylcellulose) (HPC) 108 % of control | dose: 25.0 mg/kg/injection, schedule: Q01DX009 (ip), vehicle: Klucel (hydroxypropylcellulose) (HPC) 94 % of control

O=C(CBr)c1cc2c(cc1I)OCO2
inactive: dose: 6.25 mg/kg/injection, schedule: Q01DX001 (ip), vehicle: saline with Tween-80 104 % of control | dose: 12.5 mg/kg/injection, schedule: Q01DX001 (ip), vehicle: saline with Tween-80 105 % of control | dose: 25.0 mg/kg/injection, schedule: Q01DX001 (ip), vehicle: saline with Tween-80 99 % of control and 101 % of control | dose: 100.0 mg/kg/injection, schedule: Q01DX001 (ip), vehicle: saline with Tween-80 100 % of control

Cc1ccc(N2C(c3ccccc3)=CC(=C3C=CC(=O)C=C3)C=C2c2ccccc2)cc1
inactive: dose: 3.75 mg/kg/injection, schedule: Q01DX005 (ip), vehicle: saline with Tween-80 110 % of control | dose: 7.5 mg/kg/injection, schedule: Q01DX005 (ip), vehicle: saline with Tween-80 112 % of control | [12] 103 % of control

NC(=S)NNC(=O)c1cccs1
inactive: [9] 108 % of control | [10] 100 % of control | [11] 99 % of control

CC1(c2ccccc2)CCOCO1 (stereo unspecified)
inactive: [4] 106 % of control | [5] 98 % of control | [6] 104 % of control

C/C=C(\C#N)SCC
inactive: [8] 103 % of control | [3] 114 % of control | [13] 109 % of control

COc1cc(Br)c(-c2coc3c(OC)c(OC)ccc3c2=O)cc1OC
inactive: [12] 89 % of control | dose: 30.0 mg/kg/injection, schedule: Q01DX005 (ip), vehicle: saline with Tween-80 88 % of control | [9] 86 % of control

CN1c2ccccc2S(=O)(=O)n2c(COc3ccccc3)nnc21
inactive: dose: 12.5 mg/kg/injection, schedule: Q01DX005 (ip), vehicle: saline with Tween-80 97 % of control | dose: 25.0 mg/kg/injection, schedule: Q01DX005 (ip), vehicle: saline with Tween-80 97 % of control | [4] 100 % of control and 91 % of control | [6] 88 % of control

Cn1c(=O)c2[nH]c(C3CCCC3)nc2n(C)c1=O
inactive: dose: 3.13 mg/kg/injection, schedule: Q01DX009 (ip), vehicle: saline with Tween-80 94 % of control | [14] 103 % of control | [15] 103 % of control | [16] 92 % of control

CC(=O)O[C@H]1[C@@H]2c3c(ccc4c(=O)cc(-c5ccccc5)oc34)O[C@@H]2OC1(C)C
inactive: dose: 0.98 mg/kg/injection, schedule: Q01DX005 (ip), vehicle: Klucel (hydroxypropylcellulose) (HPC) 100 % of control | dose: 1.95 mg/kg/injection, schedule: Q01DX005 (ip), vehicle: Klucel (hydroxypropylcellulose) (HPC) 98 % of control | dose: 3.9 mg/kg/injection, schedule: Q01DX005 (ip), vehicle: Klucel (hydroxypropylcellulose) (HPC) 86 % of control

O=P(c1ccccc1)(c1ccccc1)c1ccccc1.O=P(c1ccccc1)(c1ccccc1)c1ccccc1.O=P(c1ccccc1)(c1ccccc1)c1ccccc1.O=P(c1ccccc1)(c1ccccc1)c1ccccc1.[O-][Cl+3]([O-])([O-])O.[O]=[U+2]=[O]
inactive: [14] 88 % of control | [15] 90 % of control

CSCCCNC(=O)c1csc(CCNC(=O)c2ccccc2)n1
inactive: [3] 104 % of control | [13] 109 % of control | dose: 400.0 mg/kg/injection, schedule: Q01DX009 (ip), vehicle: saline with Tween-80 104 % of control

COC(=O)N/N=C\c1ccc(O)c(OC)c1
inactive: dose: 50.0 mg/kg/injection, schedule: Q04DX003 (ip), vehicle: saline 97 % of control | dose: 100.0 mg/kg/injection, schedule: Q04DX003 (ip), vehicle: saline 101 % of control | dose: 200.0 mg/kg/injection, schedule: Q04DX003 (ip), vehicle: saline 97 % of control | dose: 400.0 mg/kg/injection, schedule: Q04DX003 (ip), vehicle: saline 101 % of control

NC(=O)C(=O)c1cc(Cl)c(Cl)c(Cl)c1Cl
inactive: [16] 105 % of control | [8] 99 % of control | [3] 96 % of control
